Measurements from the supplement of paper PMC10307832.

Assays:
Experiment in all cases: relative viability (nuclei count vs DMSO), 5 days (fraction); higher = more cells survive
[1] = compound: CN(c1ncccc1CNc1nc(Nc2ccc3c(c2)CC(=O)N3)ncc1C(F)(F)F)S(C)(=O)=O + CS(=O)(=O)CCNCc1ccc(-c2ccc3ncnc(Nc4ccc(OCc5cccc(F)c5)c(Cl)c4)c3c2)o1 [Lapatinib] (partner 2 µM)
Outline: (§1)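 Values are medians from duplicate plates. Each reflects relative viability, defined as the nuclei count of treated wells over that of vehicle wells. Lung cancer cell lines in 1536-well plates were pin-tool dosed one day after seeding with one drug alone or with a fixed anchor-drug dose plus five library-drug doses (not always all listed) in √10 steps, then fixed, stained and imaged at 4× after 5 days.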

[2] = compound: CN(c1ncccc1CNc1nc(Nc2ccc3c(c2)CC(=O)N3)ncc1C(F)(F)F)S(C)(=O)=O + C[C@@H](Oc1cc(-c2cnn(C3CCNCC3)c2)cnc1N)c1c(Cl)ccc(F)c1Cl [Crizotinib] (partner 1 µM)
Outline: as §1

[3] = compound: CN(c1ncccc1CNc1nc(Nc2ccc3c(c2)CC(=O)N3)ncc1C(F)(F)F)S(C)(=O)=O + Cc1nc(Nc2ncc(C(=O)Nc3c(C)cccc3Cl)s2)cc(N2CCN(CCO)CC2)n1 [Dasatinib] (partner 0.075 µM)
Outline: as §1

[4] = compound: CN(c1ncccc1CNc1nc(Nc2ccc3c(c2)CC(=O)N3)ncc1C(F)(F)F)S(C)(=O)=O + Nc1nc2[nH]cc(CCc3ccc(C(=O)N[C@@H](CCC(=O)O)C(=O)O)cc3)c2c(=O)[nH]1 [Pemetrexed] (partner 0.2 µM)
Outline: as §1

Row | Cell Line | relative viability ([1]; first compound 0.01 µM) | relative viability ([1]; first compound 0.03162 µM) | relative viability ([1]; first compound 0.1 µM) | relative viability ([1]; first compound 0.3162 µM) | relative viability ([1]; first compound 1 µM) | relative viability ([2]; first compound 0.01 µM) | relative viability ([2]; first compound 0.03162 µM) | relative viability ([2]; first compound 0.1 µM) | relative viability ([2]; first compound 0.3162 µM) | relative viability ([2]; first compound 1 µM) | relative viability ([3]; first compound 0.01 µM) | relative viability ([3]; first compound 0.03162 µM) | relative viability ([3]; first compound 0.1 µM) | relative viability ([3]; first compound 0.3162 µM) | relative viability ([3]; first compound 1 µM) | relative viability ([4]; first compound 0.01 µM) | relative viability ([4]; first compound 0.03162 µM) | relative viability ([4]; first compound 0.1 µM) | relative viability ([4]; first compound 0.3162 µM) | relative viability ([4]; first compound 1 µM)
1 | NCI-H661 | 0.481 | 0.496 | 0.652 | 0.534 | 0.637 | 0.973 | 0.955 | 1.02 | 0.904 | 0.915 | 0.973 | 0.809 | 0.885 | 0.782 | 0.83 | 0.869 | 0.941 | 0.885 | 0.832 | 0.833
2 | HCC-366 | 1 | 1.11 | 1.05 | 1.06 | 0.971 | 0.588 | 0.964 | 0.509 | 0.606 | 0.236 | 0.541 | 0.904 | 0.598 | 0.644 | 0.687 | 0.219 | 0.172 | 0.164 | 0.172 | 0.186
3 | HOP-62 | 1.06 | 1.1 | 1.02 | 1.09 | 0.903 | 0.926 | 1.04 | 0.962 | 0.809 | 1.04 | 0.616 | 0.512 | 0.5 | 0.301 | 0.301 | 0.34 | 0.337 | 0.289 | 0.418 | 0.28
4 | NCI-H1944 | 0.815 | 0.898 | 0.782 | 0.869 | 0.792 | 0.998 | 1.11 | 1.08 | 1.08 | 1.06 | 0.232 | 0.231 | 0.202 | 0.252 | 0.276 | 0.642 | 0.612 | 0.646 | 0.592 | 0.613
5 | SW 1573 | 1.18 | 1.09 | 1.21 | 1.27 | 1.08 | 0.874 | 0.732 | 0.777 | 0.843 | 0.78 | 0.428 | 0.453 | 0.406 | 0.383 | 0.273 | 0.869 | 0.928 | 0.826 | 0.934 | 0.837
6 | LU99A | 0.971 | 1.19 | 1.01 | 1.17 | 1.08 | 0.594 | 0.584 | 0.584 | 0.758 | 0.633 | 0.63 | 0.529 | 0.378 | 0.254 | 0.267 | 0.25 | 0.156 | 0.184 | 0.203 | 0.178
7 | NCI-H647 | 1.19 | 1.3 | 1.11 | 1.04 | 1.03 | 1.01 | 1.43 | 1.05 | 1 | 1.06 | 0.146 | 0.193 | 0.127 | 0.151 | 0.125 | 0.192 | 0.163 | 0.167 | 0.178 | 0.17
8 | A-427 | 1.05 | 1.05 | 1 | 1.04 | 1.02 | 0.916 | 0.964 | 0.951 | 0.783 | 0.725 | 0.628 | 0.864 | 0.713 | 0.823 | 0.725 | 0.939 | 0.956 | 0.932 | 0.955 | 0.948
9 | COR-L 105 | 0.335 | 0.387 | 0.355 | 0.355 | 0.341 | 0.64 | 0.649 | 0.779 | 0.747 | 0.47 | 0.274 | 0.25 | 0.343 | 0.282 | 0.288 | 1.09 | 1.06 | 1.07 | 1.11 | 1.05
10 | NCI-H2126 | 0.732 | 0.732 | 0.713 | 0.774 | 0.721 | 1.03 | 1.09 | 0.975 | 0.942 | 0.916 | 0.55 | 0.559 | 0.469 | 0.381 | 0.347 | 0.7 | 0.718 | 0.615 | 0.697 | 0.632
11 | NCI-H460 | 1.11 | 1.65 | 0.963 | 0.964 | 1.02 | 1.1 | 1.15 | 0.994 | 0.891 | 0.712 | 0.62 | 0.505 | 0.462 | 0.456 | 0.436 | 0.0683 | 0.0581 | 0.0611 | 0.0605 | 0.0728
12 | SK-LU-1 | 0.885 | 1.13 | 0.912 | 0.722 | 0.874 | 0.944 | 0.882 | 0.858 | 0.808 | 0.784 | 0.198 | 0.176 | 0.157 | 0.162 | 0.124 | 1.04 | 0.903 | 0.954 | 1 | 0.88
13 | NCI-H322M | 0.585 | 0.675 | – | 0.596 | 0.653 | 0.902 | 0.948 | – | 0.953 | 0.892 | 0.205 | 0.178 | 0.223 | 0.199 | 0.219 | 0.615 | 0.606 | 0.651 | 0.635 | 0.714
14 | EKVX | 0.182 | 0.188 | 0.218 | 0.119 | 0.514 | 0.895 | 0.828 | 0.98 | 0.801 | 0.789 | 0.464 | 0.425 | 0.447 | 0.411 | 0.347 | 0.436 | 0.413 | 0.347 | 0.401 | 0.382
15 | NCI-H1734 | 0.993 | 1.17 | 1.06 | 1.1 | 1.05 | 0.684 | 0.734 | 0.752 | 0.656 | 0.618 | 0.423 | 0.436 | 0.399 | 0.339 | 0.34 | 0.421 | 0.379 | 0.395 | 0.421 | 0.439
16 | NCI-H520 | 0.917 | 1.02 | 0.845 | 0.838 | 1.04 | 0.874 | 0.795 | 0.78 | 0.782 | 0.601 | 0.21 | 0.221 | 0.151 | 0.152 | 0.155 | 0.609 | 0.924 | 0.632 | 0.768 | 0.705
17 | EPLC-272H | 0.921 | 0.914 | 0.884 | 0.965 | 1.09 | 0.912 | 0.873 | 0.888 | 0.968 | 0.93 | 0.338 | 0.27 | 0.218 | 0.209 | 0.135 | 0.332 | 0.349 | 0.375 | 0.345 | 0.313
18 | UMC-11 | 1.03 | 1.06 | 0.866 | 0.995 | 0.678 | 0.59 | 0.584 | 0.654 | 0.476 | 0.298 | 0.449 | 0.531 | 0.41 | 0.426 | 0.379 | 0.743 | 0.831 | 0.82 | 0.799 | 0.687
19 | NCI-H1792 | 0.93 | 0.937 | 0.905 | 0.827 | 0.835 | 0.936 | 1.01 | 0.971 | 0.938 | 0.961 | 0.803 | 0.841 | 0.623 | 0.581 | 0.55 | 0.903 | 0.995 | 0.922 | 0.752 | 0.867
20 | NCI-H1993 | 0.804 | 0.91 | 0.82 | 0.889 | 0.769 | 0.908 | 0.907 | 0.774 | 0.899 | 0.846 | 0.601 | 0.48 | 0.506 | 0.78 | 0.593 | 0.584 | 0.593 | 0.538 | 0.641 | 0.572
21 | NCI-H596 | 1.05 | 1.16 | 0.929 | 0.979 | 1.06 | 0.988 | 0.928 | 0.894 | 0.986 | 0.999 | 0.558 | 0.623 | 0.54 | 0.608 | 0.5 | 0.425 | 0.466 | 0.503 | 0.469 | 0.605
22 | NCI-H1563 | 0.906 | 0.839 | 0.857 | 0.942 | 1.07 | 0.855 | 0.83 | 0.91 | 0.864 | 0.799 | 0.458 | 0.422 | 0.429 | 0.372 | 0.385 | 0.815 | 0.772 | 0.84 | 0.772 | 0.773
23 | HCC-827 | 0.186 | 0.149 | 0.215 | 0.177 | 0.182 | 0.893 | 0.905 | 1 | 0.893 | 0.851 | 0.191 | 0.185 | 0.115 | 0.107 | 0.109 | 0.248 | 0.269 | 0.257 | 0.294 | 0.313
24 | NCI-H2228 | 0.835 | 0.914 | 1.02 | 1.07 | 1.08 | 0.408 | 0.516 | 0.39 | 0.47 | 0.402 | 0.549 | 0.433 | 0.42 | 0.404 | 0.339 | 0.368 | 0.343 | 0.366 | 0.313 | 0.355
25 | NCI-H2170 | 0.263 | 0.254 | 0.267 | – | 0.276 | 1.23 | 1.22 | 1.31 | – | 1.21 | 0.455 | 0.526 | 0.461 | 0.504 | 0.404 | 0.305 | 0.268 | 0.269 | 0.266 | 0.274
26 | EMC-BAC-2 | 0.956 | 0.902 | 0.876 | 0.899 | 0.838 | 0.798 | 0.817 | 0.717 | 0.78 | 0.778 | 0.247 | 0.308 | 0.279 | 0.295 | 0.271 | 0.427 | 0.471 | 0.433 | 0.472 | 0.45
27 | NCI-H23 | 1.26 | 1.25 | 1.11 | 1.21 | 0.987 | 0.444 | 0.483 | 0.456 | 0.59 | 0.457 | 0.78 | 0.697 | 0.882 | 0.835 | 0.719 | 0.691 | 0.618 | 0.779 | 0.62 | 0.605
